In general, IC50 refers to the point on the concentration scale where inhibition reaches its midpoint. A higher IC50 goes with lower potency.

2 molecules from publication PMC5085761 (International Journal of Molecular Sciences, 2016) can be followed below.

In one series the target is T1, human BCRP (Homo sapiens, UniProt Q9UNQ0).
T1 construct: purchased GenoMembrane Co., Ltd. (Kanagawa, Japan); host or cells: Sf9
T1 sequence (Q9UNQ0 1-655): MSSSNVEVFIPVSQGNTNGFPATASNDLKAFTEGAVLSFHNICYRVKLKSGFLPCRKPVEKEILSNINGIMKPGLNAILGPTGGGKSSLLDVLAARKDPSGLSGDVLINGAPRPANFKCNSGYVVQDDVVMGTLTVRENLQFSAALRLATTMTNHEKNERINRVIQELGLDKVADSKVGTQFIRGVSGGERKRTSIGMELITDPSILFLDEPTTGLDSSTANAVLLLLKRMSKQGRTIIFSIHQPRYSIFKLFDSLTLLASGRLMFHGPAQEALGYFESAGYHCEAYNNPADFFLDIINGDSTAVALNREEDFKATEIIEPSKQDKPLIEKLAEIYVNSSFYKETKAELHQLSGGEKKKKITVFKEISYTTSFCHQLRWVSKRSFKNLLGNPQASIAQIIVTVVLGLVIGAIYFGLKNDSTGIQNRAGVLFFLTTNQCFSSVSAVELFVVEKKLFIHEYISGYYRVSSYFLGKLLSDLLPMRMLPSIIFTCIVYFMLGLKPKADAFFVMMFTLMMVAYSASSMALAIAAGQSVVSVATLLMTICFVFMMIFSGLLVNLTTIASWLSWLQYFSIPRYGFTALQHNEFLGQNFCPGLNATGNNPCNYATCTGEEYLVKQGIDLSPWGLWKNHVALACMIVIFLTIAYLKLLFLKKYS
Nature of the series: [14C]fluciclovine uptake by BCRP-expressing inside-out vesicles. The format is in vitro ADME. As to the method:
For ABC transporters, experimental kits containing Sf9-derived vesicles with high expression levels of human P-gp, MRP4, BCRP, and each ABC transporter (including buffer, ATP/AMP solution, and glutathione) were purchased from GenoMembrane Co., Ltd. (Kanagawa, Japan).
Vesicular transport assays were carried out according to the manufacturer’s protocol. […] The reaction was started by suspending 50 μg of vesicles (10 μL) in 40 μL of the reaction buffer. After incubation for an appropriate period of time, the reaction was stopped by the addition of ice-cold stop buffer (40 mM MOPS-Tris and 70 mM KCl; pH 7.0), after which the solution was filtered through a 0.45 μm HA filter (Millipore Corp., Billerica, MA, USA) using suction, and was washed twice in 5 mL of ice-cold stop buffer. The radioactivity of the filter was measured with a Tri-Carb 2910TR liquid scintillation counter (PerkinElmer) using Ultima Gold (PerkinElmer). The amount of tracer uptake was normalized to the membrane protein amount described in the product information sheets.

The target in another series is T2, OAT1 (Homo sapiens, UniProt Q4U2R8).
T2 construct: host or cells: Flp-in-293
T2 sequence (Q4U2R8 1-563): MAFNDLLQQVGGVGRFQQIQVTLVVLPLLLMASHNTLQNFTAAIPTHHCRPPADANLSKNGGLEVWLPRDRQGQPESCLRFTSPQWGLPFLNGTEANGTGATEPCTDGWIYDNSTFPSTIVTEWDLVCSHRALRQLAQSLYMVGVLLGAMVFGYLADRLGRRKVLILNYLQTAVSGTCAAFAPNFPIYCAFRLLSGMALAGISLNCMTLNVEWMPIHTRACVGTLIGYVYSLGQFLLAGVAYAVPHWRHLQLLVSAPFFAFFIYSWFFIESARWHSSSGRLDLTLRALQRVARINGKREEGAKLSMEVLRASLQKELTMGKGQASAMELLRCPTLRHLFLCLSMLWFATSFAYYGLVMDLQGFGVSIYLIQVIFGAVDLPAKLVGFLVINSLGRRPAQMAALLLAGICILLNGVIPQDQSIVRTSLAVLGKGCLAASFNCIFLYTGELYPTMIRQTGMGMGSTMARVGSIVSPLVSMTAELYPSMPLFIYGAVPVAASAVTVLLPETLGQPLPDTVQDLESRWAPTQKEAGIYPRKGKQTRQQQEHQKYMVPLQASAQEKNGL
Nature of the series: Inhibition of tracer uptake in OAT1-expressing cells. The format is in vitro ADME. Conditions: OAT1, tracer [14C]PAH 1 µM. The procedure: For the SLC transporter experiments, Mock Flp-in-293 cells (Flp/mock), OAT1-expressing Flp-in-293 cells (Flp/OAT1), mock HEK293 cells (HEK/mock), and OATP1B3-expressing HEK293 cells (HEK/OATP1B3) were obtained from Kanazawa University (Ishikawa, Japan). Briefly, Flp-in-293 and HEK293 cells were transfected with the appropriate plasmid DNA and selected using antibiotics (hygromycin or G-418). All cell lines were cultured in DMEM (Life Technologies Japan) supplemented with 10% (v/v) fetal bovine serum (American Type Culture Collection) and antibiotics (100 U/mL penicillin and 100 μg/mL streptomycin (Life Technologies Japan) for mock cells, 0.2 mg/mL hygromycin for Flp/OAT1 cells, and 1.2 mg/mL G-418 (Roche Diagnostics K.K., Tokyo, Japan) for HEK/OATP1B3 cells) at 37 °C under an atmosphere containing 5% CO2. […]
The experiments were performed as described previously, with minor modifications. […] The cells were lysed in 0.3 mL of 0.1N NaOH at room temperature, after which the radioactivity of each aliquot was measured as described above. The protein concentration of the cell lysate was determined with a VersaMax microplate reader (Molecular Devices Japan K.K., Osaka, Japan) or SpectraMax i3x (Molecular Devices Japan K.K.; only for OATP1B1) using a BCA Protein Assay Kit (Thermo Fisher Scientific, Kanagawa, Japan). Tracer uptake was expressed as pmol/mg protein. […]

As to `N[14C]1(C(=O)O)CC(F)C1` (stereo not drawn) [[^14C]fluciclovine, trans-1-amino-3-fluoro[1-^14C]cyclobutanecarboxylic acid], at human BCRP, the “uptake compared with control vesicles” value is “reduced in comparison to that of the control vesicles, albeit not significantly”. With `N[C@]1(C(=O)O)C[C@@H](F)C1` [fluciclovine], the midpoint of inhibition at OAT1, the IC50, lay at 3.98 ± 1.77 mM.
